Laboratory results published in patent US4849429A, “Certain 1,4-dihydro-2,6-dilower-alkyl-4-(mono-substituted pyridyl) useful for treating coronary artery or cerebral artery disease” (The Green Cross Corporation, priority 1985, dated 1989).
Where two headings read alike, the source gives them in different places.

Assay: Test 2: blood pressure depression up to 24 hours and duration until 50% recovery, oral
Type: in vivo, Male, spontaneously hypertension-developing rats
Conditions: for response vs control in vivo at 25 mg/kg: Rattus norvegicus, percent based on that before administration (100); for Duration 50% recovery: duration until pressure recovered to 50% from the maximum depression value
Protocol: Male, spontaneously hypertension-developing rats of ages of 10 to 11 weeks (in groups of 3 to 5 animals) were used in the test. For blood pressure determination, systolic pressure was measured without anesthesia by an indirect tail-cuff method using a sphygmomanometer (PE-300, Narco Bio-System).

[1] = 1h after oral administration, read-out: Depression value (%) of blood pressure, 1h
[2] = 2h after oral administration, read-out: Depression value (%) of blood pressure, 2h
[3] = 4h after oral administration, read-out: Depression value (%) of blood pressure, 4h
[4] = 7h after oral administration, read-out: Depression value (%) of blood pressure, 7h
[5] = 24h after oral administration, read-out: Depression value (%) of blood pressure, 24h
[6] = maximum lowering, read-out: Depression value (%) of blood pressure, Max

Row | Structure (SMILES) | response vs control in vivo at 25 mg/kg [1] [%] | response vs control in vivo at 25 mg/kg [2] [%] | response vs control in vivo at 25 mg/kg [3] [%] | response vs control in vivo at 25 mg/kg [4] [%] | response vs control in vivo at 25 mg/kg [5] [%] | response vs control in vivo at 25 mg/kg [6] [%] | Duration 50% recovery [h]
1 | COC(=O)C1=C(C)NC(C)=C(C(=O)OCCN(C)Cc2ccccc2)C1c1ncccc1[N+](=O)[O-] (stereo not drawn) [(1), 2,6-Dimethyl-4-(3-nitro-2-pyridyl)-1,4-dihydropyridine-3,5-dicarboxylicacid 3-β-(N-benzyl-N-methylamino)ethyl ester 5-methyl ester] | 65 | 68 | 76 | 81 | 96 | 65 | 8.7
2 | COC(=O)C1=C(C)NC(C)=C(C(=O)OCCN(C)Cc2ccccc2)C1c1cc(Br)ccn1 (stereo not drawn) [(2), 2,6-Dimethyl-4-(4-bromo-2-pyridyl)-1,4-dihydropyridine-3,5-dicarboxylicacid 3-β-(N-benzyl-N-methylamino)ethyl ester 5-methyl ester] | 70 | 76 | 75 | 92 | 102 | 70 | 5.8
3 | COC(=O)C1=C(C)NC(C)=C(C(=O)OCCN(C)Cc2ccccc2)C1c1cc(C#N)ccn1 (stereo not drawn) [(3), 2,6-Dimethyl-4-(4-cyano-2-pyridyl)-1,4-dihydropyridyne-3,5-dicarboxylicacid 3-β-(N-benzyl-N-methylamino)ethyl ester 5-methyl ester] | 61 | 66 | 74 | 82 | 95 | 61 | 7.0
4 | COC(=O)C1=C(C)NC(C)=C(C(=O)OCCN(C)Cc2ccccc2)C1c1cccc(Cl)n1 (stereo not drawn) [(7), 2,6-Dimethyl-4-(6-chloro-2-pyridyl)-1,4-dihydropyridine-3,5-dicarboxylic a cid 3-β-(N-benzyl-N-methylamino)ethyl ester 5-methyl ester] | 83 | 84 | 87 | 93 | 101 | 83 | 6.0
5 | COC(=O)C1=C(C)NC(C)=C(C(=O)OCCN(C)Cc2ccccc2)C1c1cccc(C(F)(F)F)n1 (stereo not drawn) [(9), 2,6-Dimethyl-4-(6-trifluoromethyl-2-pyridyl)-1,4-dihydropyridine-3,5-dicarboxylic acid 3-β-(N-benzyl-N-methylamino)ethyl ester 5-methyl ester] | 85 | 92 | 91 | 104 | 119 | 85 | 4.6
6 | COC(=O)C1=C(C)NC(C)=C(C(=O)OCCN(C)Cc2ccccc2)C1c1cccc([N+](=O)[O-])n1 (stereo not drawn) [(10), 2,6-Dimethyl-4-(6-nitro-2-pyridyl)-1,4-dihydropyridine-3,5-dicarboxylic ac id 3-β-(N-benzyl-N-methylamino)ethyl ester 5-methyl ester] | 99 | 95 | 107 | 110 | 120 | 95 | 2.4
7 | COC(=O)C1=C(C)NC(C)=C(C(=O)OCCN(C)Cc2ccccc2)C1c1cccnc1Br (centres unmarked) [(11)] | 83 | 82 | 87 | 91 | 97 | 82 | 6.7
8 | COC(=O)C1=C(C)NC(C)=C(C(=O)OCCN(C)Cc2ccccc2)C1c1cccnc1C#N (stereo not drawn) [(12), 2,6-Dimethyl-4-(2-cyano-3-pyridyl)-1,4-dihydropyridine-3,5-dicarboxylic ac id 3-β-(N-benzyl-N-methylamino)ethyl ester 5-methyl ester] | 66 | 71 | 76 | 88 | 98 | 66 | 5.6
